Molecules are shown by their SMILES. Structures can show the parent of a compound that is named as a salt.

Compound `NC(CS)CN1CCN(C(=O)c2cccc3ccccc23)Cc2ccccc21` (racemic) (as salt: hydrochloride) [Example 1, (+,−)-1-(2-Amino-3-mercaptopropyl)-2,3,4,5-tetrahydro-4-(naphthalenylcarbonyl)-1H-1,4-benzodiazepine, Monohydrochloride] showed a melting point of 140 °C.

Source of the values: US6458783B1, “Non-imidazole benzodiazepine inhibitors of farnesyl protein transferase” (Bristol-Myers Squibb Company, priority 1997, dated 2002).
